Data published in PubChem BioAssay AID1845206 (Molecular Pharmacology Branch, DTP, NCI, 2023).
The source made the active and inactive calls. The calls were made as follows: active = viability on the fitted dose curve at most 10% of control; inactive = the rest.

Test system: NCI-H1618 multicellular tumor spheroid viability
Assay: Anticancer human tumor NCI-H1618 cell line growth inhibition;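 also: spheroids exposed to agents for 7 days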
Details: for IC50: curve of first compound; for viability, T/C: stronger effect = lower value
Method in brief: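 Single agents and combinations were tested on spheroids built from tumor cells plus HUVEC and hMSC, at half-log dilutions starting at or near clinical Cmax, else 10 microM; final DMSO 0.25% (v/v).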

[1] = second compound 1 µM, first compound 0.00949 µM
[2] = second compound 1 µM, first compound 0.03 µM
[3] = second compound 1 µM, first compound 0.0949 µM
[4] = second compound 1 µM, first compound 0.3 µM
[5] = second compound 1 µM, first compound 0.949 µM
[6] = second compound 1 µM, first compound 3 µM
[7] = second compound 3.16 µM, first compound 0.00949 µM
[8] = second compound 3.16 µM, first compound 0.03 µM
[9] = second compound 3.16 µM, first compound 0.0949 µM
[10] = second compound 3.16 µM, first compound 0.3 µM
[11] = second compound 3.16 µM, first compound 0.949 µM
[12] = second compound 3.16 µM, first compound 3 µM
[13] = second compound 10 µM, first compound 0.00949 µM
[14] = second compound 10 µM, first compound 0.03 µM
[15] = second compound 10 µM, first compound 0.0949 µM
[16] = second compound 10 µM, first compound 0.3 µM
[17] = second compound 10 µM, first compound 0.949 µM
[18] = second compound 10 µM, first compound 3 µM
[19] = second compound 31.6 µM, first compound 0.00949 µM
[20] = second compound 31.6 µM, first compound 0.03 µM
[21] = second compound 31.6 µM, first compound 0.0949 µM
[22] = second compound 31.6 µM, first compound 0.3 µM
[23] = second compound 31.6 µM, first compound 0.949 µM
[24] = second compound 31.6 µM, first compound 3 µM
[25] = second compound 100 µM, first compound 0.00949 µM
[26] = second compound 100 µM, first compound 0.03 µM
[27] = second compound 100 µM, first compound 0.0949 µM
[28] = second compound 100 µM, first compound 0.3 µM
[29] = second compound 100 µM, first compound 0.949 µM
[30] = second compound 100 µM, first compound 3 µM

Compound	IC50 (second compound 1 µM) [nM]	IC50 (second compound 3.16 µM) [nM]	IC50 (second compound 10 µM) [nM]	IC50 (second compound 31.6 µM) [nM]	IC50 (second compound 100 µM) [nM]	viability, T/C [3] [%]	viability, T/C [4] [%]	viability, T/C [5] [%]	viability, T/C [6] [%]	viability, T/C [9] [%]	viability, T/C [10] [%]	viability, T/C [11] [%]	viability, T/C [12] [%]	viability, T/C [15] [%]	viability, T/C [16] [%]	viability, T/C [17] [%]	viability, T/C [18] [%]	viability, T/C [21] [%]	viability, T/C [22] [%]	viability, T/C [23] [%]	other results
CNCc1ccc(-c2cc(-c3nc(-c4ccc(S(=O)(=O)C(C)C)cc4)cnc3N)on2)cc1 + Cn1nnc2c(C(N)=O)ncn2c1=O	57.2	< 9.49	< 9.49	< 9.49	< 9.49	20	9.42	1.93	0.47	21.4	2.21	1.04	0.58	3.76	1.59	0.8	16.5	19.2	1.44	1.18	viability, T/C [1]: 87.1%; viability, T/C [2]: 89.3%; viability, T/C [7]: 11.2%; viability, T/C [8]: 23.2%; viability, T/C [13]: 8.64%; viability, T/C [14]: 4.75%; viability, T/C [19]: 10.5%; viability, T/C [20]: 14.6%; viability, T/C [24]: 18.5%; outcome [25]: inactive; viability, T/C [26]: 24.1%; viability, T/C [27]: 13.9%; viability, T/C [28]: 1.69%; viability, T/C [29]: 19.3%; viability, T/C [30]: 0.46%
Cc1sc2c(c1C)C(c1ccc(Cl)cc1)=NC(CC(=O)Nc1ccc(O)cc1)c1nnc(C)n1-2 (stereo not given) + Cn1nnc2c(C(N)=O)ncn2c1=O	783	< 9.49	< 9.49	< 9.49	146	90	72	45.9	20.5	49.1	22.8	5.18	5.41	5.98	18.9	2.4	1.94	17.6	4.34	1.89	viability, T/C [1]: 97.7%; viability, T/C [2]: 20.7%; viability, T/C [7]: 19.5%; viability, T/C [8]: 35.3%; viability, T/C [13]: 6.33%; viability, T/C [14]: 21.3%; viability, T/C [19]: 7.34%; viability, T/C [20]: 9.11%; viability, T/C [24]: 1.29%; viability, T/C [25]: 53.6%; viability, T/C [26]: 78.7%; viability, T/C [27]: 70.3%; viability, T/C [28]: 20.8%; viability, T/C [29]: 6.16%; viability, T/C [30]: 0.99%
Cn1ncnc1[C@H]1c2n[nH]c(=O)c3cc(F)cc(c23)N[C@@H]1c1ccc(F)cc1 + Cn1nnc2c(C(N)=O)ncn2c1=O	9.72	< 9.49	< 9.49	< 9.49	< 9.49	4.42	1.85	2.02	2.04	21.4	1.75	1.84	19.8	2.45	2.8	18.3	1.95	3.12	1.9	1.85	viability, T/C [1]: 50.5%; viability, T/C [2]: 26.7%; viability, T/C [7]: 3.96%; viability, T/C [8]: 22.4%; viability, T/C [13]: 19.2%; viability, T/C [14]: 1.53%; viability, T/C [19]: 1.95%; viability, T/C [20]: 1.94%; viability, T/C [24]: 2.06%; viability, T/C [25]: 1.84%; viability, T/C [26]: 2.1%; viability, T/C [27]: 2.47%; viability, T/C [28]: 2.51%; viability, T/C [29]: 18.2%; viability, T/C [30]: 2.29%
O=C(c1cc(Cc2n[nH]c(=O)c3ccccc23)ccc1F)N1CCN(C(=O)C2CC2)CC1 + Cn1nnc2c(C(N)=O)ncn2c1=O	179	< 94.9	< 94.9	< 94.9	< 94.9	77.8	22.5	23.6	20.8	19.4	25.9	23.3	3.5	24.5	23.7	21.8	20	24.9	26.2	21.8	viability, T/C (second compound 1 µM, first compound 9.49 µM): 2.93%; viability, T/C (second compound 1 µM, first compound 30 µM): 5.71%; viability, T/C (second compound 3.16 µM, first compound 9.49 µM): 24.2%; viability, T/C (second compound 3.16 µM, first compound 30 µM): 8.1%; viability, T/C (second compound 10 µM, first compound 9.49 µM): 20.2%; viability, T/C (second compound 10 µM, first compound 30 µM): 5.57%; viability, T/C [24]: 20.8%; viability, T/C (second compound 31.6 µM, first compound 9.49 µM): 20.5%; viability, T/C (second compound 31.6 µM, first compound 30 µM): 3.19%; viability, T/C [27]: 21.8%; viability, T/C [28]: 23.7%; viability, T/C [29]: 23%; viability, T/C [30]: 21.4%; viability, T/C (second compound 100 µM, first compound 9.49 µM): 2.71%; viability, T/C (second compound 100 µM, first compound 30 µM): 2.88%
